Measured values: US12023330B2, “Use of manzamines as antiproliferative agent” (priority 2020, dated 2024)

What was measured:
[1] = system: HeLa cells; assay: Cell cycle distribution by flow cytometry (PI); assay type: cell-based, human; conditions: 4 μM, 48 and 72 hours, vs DMSO control
Procedure: (§1) Differential Activation of G1 Phase Arrest and Apoptosis by Manzamine A (1). To understand the mechanism of manzamine A (1)-mediated cell growth inhibition, we analyzed the cell cycle distribution by flow cytometry in C33A, HeLa, SiHa, and CaSki cell lines. […] FIGS. 3A and 3B show a representation of manzamine A (1) effect on cervical cancer cells treated with 4 μM concentration. […] The values represent standard error from the mean (mean±SE). DMSO serves as control. The significance level represents; *p<0.05; **p<0.001; ***[…]; and ns=non-significant. […] Particularly at 4 μM concentration, the percentage of G0/G1 cell population in SiHa and CaSki increased to 1.2 fold (p=0.001) and 1.4 fold (p=0.011) at 24 hours, and 1.2 fold (p=0.03) and 1.5 fold (p=0.006) at 48 hours as compared to respective DMSO control.
(§2) Cell-cycle and Apoptosis Analysis. Cervical cancer cells were seeded and treated with different concentrations of manzamine A (1) as above. Following trypsinization, one part of the cells was washed with PBS and fixed in chilled 70% ethanol on ice for 30 min. Cells were treated with RNAse A (1 mg/ml) at room temperature for 30 min and stained with propidium iodide (PI: 20 μg/ml). Cell-cycle distribution was analyzed by flow cytometry (Beckman Coulter Epics Elite, Beckman). A minimum of 10,000 events were counted per sample, and the data were analyzed using CXP software (Beckman Coulter) for the proportions of cells in G0/G1, S and G2/M phases of the cell cycle. The second part of the cells were washed twice with PBS and re-suspended in the buffer containing Alexa Fluor conjugated-Annexin-V and PI (Life Technologies, USA). The double staining of the cells was analyzed by flow cytometric analysis. A total of 10,000 cell events were collected to analyze the extent of early, late apoptosis, or necrosis from each sample with the percentages of bound annexin-V^+/PI^−, annexin V^+/PI^+, and annexin V^−/PI^+, respectively.

[2] = system: SiHa cells; assay: Cell cycle distribution by flow cytometry (PI); assay type: cell-based, human; conditions: 4 μM
Procedure: as §1, §2

[3] = system: CaSki cells; assay: Cell cycle distribution by flow cytometry (PI); assay type: cell-based, human; conditions: 4 μM
Procedure: as §1, §2

[4] = system: C33A cells; assay: CellTiter-Glo cell viability assay; assay type: cell-based, human
Procedure: (§3) Biological Effect of Marine Sponge Natural Product Manzamine A on Cervical Cancer Cell Growth. We determined the biological activity of manzamine A on cervical cancer cells C33A (HPV-negative), HeLa, SiHa, and CaSki (HPV16/18-positive) using a wide range of concentrations (0-40 μM) at different time points (24, 48 and 72 hours). The CellTiter-Glo cell viability assay determined the cell viability based on metabolically active cells producing ATP in the cell culture. […] Twenty thousand (2×10^4) cells were seeded in ninety-six well plates and treated with a wide range of 1 μM to 40 μM concentration of manzamine A for three time points (24, 48 and 72 h). The experiment was repeated at least three times in quadruplicates from different cell preparations with similar results. Percent viable cells were used to calculate IC50 values and are shown in the inset for all the cell lines at their respective time-points. The percent viability values represent standard error from the mean (mean±SE).
(§4) Cell Culture. Human cervical cancer cell lines C33A, HeLa, SiHa, and CaSki were purchased from the American Type Culture Collection (ATCC, Manassas, VA). Cells were grown in Dulbecco's Modified Eagle Medium (DMEM) medium supplemented with 10% fetal bovine serum, 2 mM L-glutamine, 100 U/ml of penicillin-streptomycin, and maintained at 37° C. with 5% CO2 in a humidified incubator.
(§5) Cell Viability Assay. Cell viability was measured by using Cell Titer-Glo Luminescent Cell Viability Assay Kit (Promega, Leiden, Netherlands) according to the manufacturer's instructions. Briefly, 2×10^4 cells were seeded in 96 well plates. Next day, cells were treated with different concentrations of MA (0-40 μM) for 24, 48 and 72 hours. Percent viability was calculated using the formula: percent (%) viability=100×(Treatment/Control). The IC50 value was calculated from the dose responsive sigmoid curve generated from % viability using GrpaphPad Prism 7 software.

[5] = system: HeLa cells; assay: CellTiter-Glo cell viability assay; assay type: cell-based, human
Procedure: as §3, §4, §5

[6] = system: CaSki cells; assay: CellTiter-Glo cell viability assay; assay type: cell-based, human
Procedure: as §3, §4, §5

[7] = system: cervical cancer cell lines; assay: Colony formation assay; assay type: cell-based, human; conditions: 2 and 4 μM; one week
Procedure: To maintain the treatment uniformity across the cell lines, we selected optimal dose concentration of 1 to 4 μM, and treated C33A, HeLa, SiHa and CaSki cell lines.
Colony Formation Assay. Cancer cell lines were seeded at a density of 1×10^3 cells/ml in 6-well plates. Following overnight incubation, the cells were treated with manzamine A (1) (2 μM and 4 μM) and incubated in a tissue culture incubator at 37° C. with 5% CO2. After one week, the developed cell colonies were fixed with 4% paraformaldehyde, stained with 0.5% crystal violet, and were photographed.

[8] = system: normal human keratinocytes (HKc); assay: Cell growth kinetics of normal keratinocytes; assay type: cell-based; conditions: 4 μM stated for compound 4; 48 h and 72 h; vs DMSO control
Procedure: Based on MoIN, the additional manzamine-related compounds such as manzamine D (2), manzamine F (3), 8-hydroxymanzamine A (4), and ircinal A (5) were tested for their biological activities targeting cervical cancer cell lines (SiHa and CaSki).
Generation of Normal Human Keratinocytes (HKc). The generation and processing of normal HKc from de-identified foreskin tissue samples has previously been described in our studies, see Pirisi, L.; Yasumoto, S.; Feller, M.; Doniger, J.; DiPaolo, J. A. J. Virol. 1987, 61, 1061-1066, and was implemented with the following modifications: dispase was used in lieu of collagenase, and a trypsinization step was added to release the epidermal cells. Briefly, to generate normal HKc primary cultures, the foreskin tissue, free of subcutaneous tissue, was placed in 10% dispase in phosphate buffer saline (PBS) and incubated overnight at 37° C. The next day, the epidermis was separated from the dermis, and processed mechanically by shredding the tissue into smaller pieces that were then treated with Trypsin/EDTA for 10 minutes at 37° C. Following the addition of fetal bovine serum (10%) to stop the trypsin action, cells were collected by centrifugation and plated in keratinocytes serum free medium (KSFM).
Cell Growth Kinetics. […] The cell proliferation activity was determined by cell counting under the microscope with a hemocytometer using trypan blue staining.

Q: With `O[C@]12C=C(c3nccc4c3[nH]c3ccccc34)[C@@H]3CCN(CCCC/C=C\CC1)C[C@@]31C[C@@H]3/C=C\CCCCN3[C@H]12` [manzamine A] as the compound, how does the “cell population in G0/G1” value [1] read?
A: Its value is “significant decrease”.

Q: What about the “increase of percentage of G0/G1 cell population vs DMSO control” value (“increase of percentage … vs DMSO control” below) ([2]; 24 hours) of the same compound?
A: Its value is 1.2 fold.

Q: What about the “increase of percentage … vs DMSO control” value ([2]; 48 hours) of the same compound?
A: The value was 1.2 fold.

Q: And the “increase of percentage … vs DMSO control” value ([3]; 24 hours)?
A: The value was 1.4 fold.

Q: What about the “increase of percentage … vs DMSO control” value ([3]; 48 hours) of the same compound?
A: The value was 1.5 fold.

Q: What about the IC50 ([4]; 48 hours) of the same compound?
A: Its IC50 is 2.1 µM.

Q: What about the IC50 ([4]; 72 hours) of the same compound?
A: Its IC50 is 1.6 µM.

Q: What about the IC50 ([5]; 48 hours) of the same compound?
A: The IC50 was 4 µM.

Q: What about the IC50 ([5]; 72 hours) of the same compound?
A: Its IC50 is 5.3 µM.

Q: And the IC50 ([6]; 48 hours)?
A: The IC50 was 19.9 µM.

Q: What about the IC50 ([6]; 72 hours) of the same compound?
A: Its IC50 is 9.4 µM.

Q: And the “colony formation (long-term cell growth)” value [7]?
A: The value was “inhibited the cell growth”.

Q: What about the “cell growth kinetics of normal HKc” value [8] of the same compound?
A: Its value is “no adverse effect”.
